# Where a name gives a salt, the structure may show the parent alone. Read-outs that look alike come from different tables or passages of the source.
# Tests used:
# [1] = target: T1, phosphorylated VEGF-R2Δ50 (FLVK-P) (Homo sapiens, UniProt P35968, DEL940-989/E990V); experiment: VEGF-R2 coupled spectrophotometric assay, phosphorylated construct (FLVK-P); format: biochemical
# T1 construct: VEGF-R2Δ50 contains residues 806-939 and 990-1171; made in house; host or cells: baculovirus/insect cells
# In short: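 Baculovirus-expressed VEGF-R2Δ50 (residues 806-939/990-1171, E990V), optionally autophosphorylated; ADP formation coupled via PK/LDH to NADH oxidation at 340 nm, pH 7.5 Hepes. FLVK-P: 1 mM ATP, 5.1 mM poly(E4Y1), 25 mM MgCl2; FLVK: 3 mM ATP, 20 mM poly(E4Y1), 60 mM MgCl2, 2 mM MnCl2. Ki from activity over compound concentrations.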
# [2] = target: T2, unphosphorylated VEGF-R2Δ50 (FLVK) (Homo sapiens, UniProt P35968, DEL940-989/E990V); experiment: VEGF-R2 coupled spectrophotometric assay, unphosphorylated construct (FLVK); format: biochemical; conditions: for inhibition at 0.05 µM: @ 50 nM, read-out: FLVK percent inhibition;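 on all read-outs here: Baculovirus-expressed cytosolic kinase domain, ADP formation linked via pyruvate kinase and lactate dehydrogenase to NADH oxidation, read as falling absorbance at 340 nm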
# T2 construct: VEGF-R2Δ50 contains residues 806-939 and 990-1171; made in house; host or cells: baculovirus/insect cells
# Experimental: A construct (VEGF-R2Δ50) of the cytosolic domain of human vascular endothelial growth factor receptor 2 (VEGF-R2) lacking the 50 central residues of the 68 residues of the kinase insert domain was expressed in a baculovirus/insect cell system. […] Autophosphorylation of the purified construct was performed by incubation of the enzyme at a concentration of 4 μM in the presence of 3 mM ATP and 40 mM MgCl2 in 100 mM Hepes, pH 7.5, containing 5% glycerol and 5 mM DTT, at 4° C. for 2 h.
# The production of ADP from ATP that accompanies phosphoryl transfer was coupled to oxidation of NADH using phosphoenolpyruvate (PEP) and a system having pyruvate kinase (PK) and lactic dehydrogenase (LDH). The oxidation of NADH was monitored by following the decrease of absorbance at 340 nm (e340=6.22 cm^−1 mM^−1) using a Beckman DU 650 spectrophotometer. Assay conditions for phosphorylated VEGF-R2Δ50 (indicated as FLVK-P in the tables below) were the following: 1 mM PEP; 250 μM NADH; 50 units of LDH/mL; 20 units of PK/mL; 5 mM DTT; 5.1 mM poly(E4Y1); 1 mM ATP; and 25 mM MgCl2 in 200 mM Hepes, pH 7.5. Assay conditions for unphosphorylated VEGF-R2Δ50 (indicated as FLVK in the tables) were the following: 1 mM PEP; 250 μM NADH; 50 units of LDH/mL; 20 units of PK/mL; 5 mM DTT; 20 mM poly(E4Y1); 3 mM ATP; and 60 mM MgCl2 and 2 mM MnCl2 in 200 mM Hepes, pH 7.5. Assays were initiated with 5 to 40 nM of enzyme. Ki values were determined by measuring enzyme activity in the presence of varying concentrations of test compounds. The data were analyzed using Enzyme Kinetic and Kaleidagraph software.
# [3] = target: T3, FGF-R1 intracellular kinase domain (Homo sapiens, UniProt P11362, C488A/C584S/L457V); experiment: FGF-R spectrophotometric assay; format: biochemical; conditions: for inhibition at 1 µM: read-out: FGF-P percent inhibition;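 on all read-outs here: coupled PK/LDH enzyme assay: ADP from kinase phosphoryl transfer drives NADH oxidation, read as absorbance decrease at 340 nm, with 2 mM ATP and poly(E4Y1) substrate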
# T3 construct: starting from the endogenous methionine residue 456 to glutamate 766; made in house; host or cells: baculovirus expression system
# Source text: The intracellular kinase domain of human FGF-R1 was expressed using the baculovirus vector expression system starting from the endogenous methionine residue 456 to glutamate 766, according to the residue numbering system of Mohammadi et al., Mol. Cell.
# The production of ADP from ATP that accompanies phosphoryl transfer was coupled to oxidation of NADH using phosphoenolpyruvate (PEP) and a system having pyruvate kinase (PK) and lactic dehydrogenase (LDH). The oxidation of NADH was monitored by following the decrease of absorbance at 340 nm (e340=6.22 cm^−1 mM^−1) using a Beckman DU 650 spectrophotometer. […] Assays were initiated with 5 to 40 nM of enzyme. Ki values were determined by measuring enzyme activity in the presence of varying concentrations of test compounds. The data were analyzed using Enzyme Kinetic and Kaleidagraph software.
# The spectrophotometric assay was carried out as described above for VEGF-R2, except for the following changes in concentration: FGF-R=50 nM, ATP=2 mM, and poly(E4Y1)=15 mM.
# [4] = target: T4, LCK tyrosine kinase (Homo sapiens, UniProt P06239, C224D/P223M); experiment: LCK spectrophotometric assay; format: biochemical; conditions: for Ki: read-out: LCK-P Ki;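 on all read-outs here: recombinant LCK kinase activity on poly(E4Y1), ADP formation coupled through PK/LDH to NADH oxidation, followed as absorbance loss at 340 nm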
# T4 construct: starting from amino acid residue 223 to the end of the protein at residue 509; made in house; host or cells: insect cells
# [5] = tested on: human umbilical vein endothelial cells (HUVEC); experiment: HUVEC proliferation assay (VEGF-stimulated, MTT); format: cell-based; conditions: Homo sapiens
# In short: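 Exponentially growing HUVEC (passage 3-4) were serum-starved 24 h in F12K + 1% FBS, given test compound (final DMSO 0.1%), then stimulated 1 h later with VEGF at 6 ng/ml final. Proliferation read after 72 h by 4 h MTT dye reduction, absorbance at 595.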
# [6] = tested on: lung cancer cells (line MV522); experiment: Cancer cell proliferation (MV522) assay (MTT); format: cell-based
# Experimental: The protocol for assessing cellular proliferation in cancer cells is similar to that used for assessments in HUVEC cells. Two thousand lung cancer cells (line MV522, acquired from American Tissue Cultural Collection) were seeded in growth media (RPMI1640 medium supplemented with 2 mM glutamine and 10% FBS). Cells are allowed to attach for 1 day prior to addition of test agents and/or vehicles. Cells are treated simultaneously with the same test agents used in the HUVEC assay. Cellular proliferation is quantified by MTT dye reduction assay 72 hours after exposure to test agents. The total length of the assay is 4 days vs. 5 for HUVEC cells because MV522 cells are not exposed to starvation medium.
# [7] = unphosphorylated VEGF-R2 construct
# [8] = read-out: LCK-P percent inhibition
# [9] = HUVEC proliferation with albumin, read-out: Huvec + Albumin IC50
# [10] = HUVEC, with albumin, read-out: Huvec + Albumin IC50
# [11] = VEGF-stimulated HUVEC proliferation, read-out: HUVEC IC50
# T1 sequence (P35968 with tags, fused parts or gaps DEL940-989/E990V limits assumed): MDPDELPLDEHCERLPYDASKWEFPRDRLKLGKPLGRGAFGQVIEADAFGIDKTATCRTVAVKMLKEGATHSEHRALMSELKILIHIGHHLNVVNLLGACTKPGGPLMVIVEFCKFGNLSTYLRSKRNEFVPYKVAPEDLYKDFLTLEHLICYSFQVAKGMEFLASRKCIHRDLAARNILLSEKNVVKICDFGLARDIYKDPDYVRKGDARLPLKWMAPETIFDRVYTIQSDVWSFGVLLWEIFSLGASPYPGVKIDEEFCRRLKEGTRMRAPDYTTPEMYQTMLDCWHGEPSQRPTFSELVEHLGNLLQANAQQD
# T2 sequence (P35968 with tags, fused parts or gaps DEL940-989/E990V limits assumed): as above
# T3 sequence (P11362 456-766 L457V/C488A/C584S): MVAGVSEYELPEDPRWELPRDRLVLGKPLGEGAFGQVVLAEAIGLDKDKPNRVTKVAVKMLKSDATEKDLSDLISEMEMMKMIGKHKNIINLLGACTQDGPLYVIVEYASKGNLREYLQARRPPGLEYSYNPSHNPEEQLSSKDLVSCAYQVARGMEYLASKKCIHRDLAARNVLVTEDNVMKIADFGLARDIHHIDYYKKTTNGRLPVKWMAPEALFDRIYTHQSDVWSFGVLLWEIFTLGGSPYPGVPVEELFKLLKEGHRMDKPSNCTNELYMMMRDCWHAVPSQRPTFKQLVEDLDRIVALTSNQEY
# T4 sequence (P06239 223-509 P223M/C224D): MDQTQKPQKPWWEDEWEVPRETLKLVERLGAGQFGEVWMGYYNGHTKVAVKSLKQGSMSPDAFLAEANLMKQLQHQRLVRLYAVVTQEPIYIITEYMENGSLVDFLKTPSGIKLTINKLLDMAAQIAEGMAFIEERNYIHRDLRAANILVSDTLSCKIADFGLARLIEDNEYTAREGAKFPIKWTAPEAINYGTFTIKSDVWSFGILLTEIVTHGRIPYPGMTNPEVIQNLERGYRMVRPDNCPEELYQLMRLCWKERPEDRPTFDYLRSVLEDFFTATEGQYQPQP
Structure (SMILES),inhibition at 1 µM [3] [%],"inhibition at 1 µM [4, 8] [%]",Ki [1] [nM],Ki [2] [nM],"IC50 ([5]; HUVEC, read-out: HUVEC IC50) [nM]",IC50 ([6]; MV522) [nM],also measured
"CC(=O)Nc1ccc(CCc2cccc(C(=O)Nc3ccc(N4CCNCC4)c(C(F)(F)F)c3)c2)cn1 [AA-1, 3-[2-(6-Acetylamino-pyridin-3-yl)-ethyl]-N-(4-piperazin-1-yl-3-trifluoromethylphenyl)-benzamide dihydrochloride]",39,44,,,,,"inhibition at 0.05 µM ([1]; @ 50 nM, read-out: FLVK-P percent inhibition): 59%; Ki [2, 7]: 2.8 nM; IC50 [5, 9]: 25 nM"
"O=C(Nc1ccc(N2CCNCC2)c(C(F)(F)F)c1)c1ccc(F)c(OCc2cncc(-c3ccco3)c2)c1 [EE-1, 4-Fluoro-3-(5-furan-2-yl-pyridin-3-ylmethoxy)-N-(4-piperazin-1-yl-3-trifluoromethyl-phenyl)-benzamide dihydrochloride]",32,53,,,,,"Ki [2, 7]: 3.4 nM; IC50 [5, 9]: 180 nM"
"Cc1cc(NC(=O)c2cccc(CSc3cnccn3)c2)ccc1C(C)C [Example A-3, N-(4-Isopropyl-3-methylphenyl)-3-[(pyrazin-2-yl)sulfanylmethyl]benzamide]",,,32,4.5,240,> 10000,melting point: 69 to 73 °C
"Cc1cc(NC(=O)c2cccc(CSc3ncnc4[nH]ncc34)c2)ccc1C(C)C [Example A-5, N-(4-Isopropyl-3-methylphenyl)-3-[(1H-pyrazolo[3,4-d]pyrimidin-4-yl)sulfanylmethyl]benzamide]",,,8.64,1,270,> 10000,"inhibition at 5 µM ([4]; @ 5 μM, read-out: LCK-P percent inhibition): 37%; melting point: 187 to 189 °C"
"COc1cc(NC(=O)c2cccc(CSc3ncnc4[nH]ncc34)c2)cc(OC)c1OC [Example B-1, N-(3,4,5-Trimethoxyphenyl)-3-[(1H-pyrazolo[3,4-d]pyrimidin-4-yl)sulfanylmethyl]benzamide]",,,111,25,,,Ki ([3]; read-out: FGF-P Ki): 87000 nM
"COc1ccc(/C=C/c2cc(CCc3cccc(C(=O)Nc4ccc(C(C)C)c(C)c4)c3)[nH]n2)cc1OC [Example F-3, 3-(2-{5-[(E)-2-(3,4-Dimethoxyphenyl)ethenyl]-2H-pyrazol-3-yl}-ethyl)-N-(3-methyl-4-isopropylphenyl)-benzamide]",83,84,1.01,0.31,10,> 10000,
"C/C=C/c1cc(COc2cc(C(=O)Nc3ccc(N4CCCC4)c(C(F)(F)F)c3)ccc2F)[nH]n1 [Example F-4, 4-Fluoro-3-[{5-((E)-1-propenyl)-2H-pyrazol-3-yl}methoxy]-N-[4-(pyrrolidin-1-yl)-3-trifluoromethylphenyl]benzamide]",18,19,,,63,2600,
"CNS(=O)(=O)c1ccc(Nc2cc(CCc3cccc(C(=O)Nc4ccc(C(C)C)c(C)c4)c3)[nH]n2)cc1 [Example G-1, N-(4-Isopropyl-3-methyl-phenyl)-3-{2-[5-(4-(methylsulfamoyl)phenylamino)-2H-pyrazol-3-yl]-ethyl}-benzamide]",81,,0.592,,10,> 10000,"Ki [4]: 90 nM; IC50 [5, 10]: 435 nM"
"COc1ccc(Nc2cc(CCc3cccc(C(=O)Nc4ccc(C(C)C)c(C)c4)c3)[nH]n2)cn1 [Example G-4, N-(4-Isopropyl-3-methyl-phenyl)-3-{2-[5-(6-methoxypyridin-3-yl)amino-2H-pyrazol-3-yl]-ethyl}-benzamide]",77,,0.79,0.1,16,> 10000,Ki [4]: 72 nM
"COc1ccc(Nc2cc(CCc3cccc(C(=O)Nc4cnc(N(C)C)c(C(F)(F)F)c4)c3)[nH]n2)cn1 [Example G-6, N-(6-Dimethylamino-5-trifluoromethylpyridin-3-yl)-3-{2-[5-(6-methoxypyridin-3-yl)amino-2H-pyrazol-3-yl]ethyl}-benzamide]",74,,1.98,,12,10000,"Ki [4]: 65 nM; IC50 [5, 10]: 59 nM"
"COc1ccc(Nc2cc(COc3cc(C(=O)Nc4ccc(-n5ccnc5)c(C(F)(F)F)c4)ccc3F)[nH]n2)cn1 [Example J-1, 4-Fluoro-N-[4-(imidazol-1-yl)-3-trifluoromethylphenyl]-3-[5-(6-methoxypyridin-3-yl)amino-2H-pyrazol-3-ylmethoxy]-benzamide]",61,38,,1.6,37,,
"COc1cc(NC(=O)c2ccc(F)c(OCc3cc(Nc4ccc(OC)nc4)n[nH]3)c2)cc(C(F)(F)F)c1 [Example J-3, 4-Fluoro-3-[5-(6-methoxypyridin-3-yl)amino-2H-pyrazol-3-yl]methoxy-N-(3-methoxy-5-trifluoromethyl-phenyl)-benzamide]",54,44,,0.92,50,,
"Cc1ccc(C(=O)Nc2ccc(C(C)C)c(C)c2)cc1OCc1cncc2ccccc12 [Example K-11, N-(4-Isopropyl-3-methyl-phenyl)-4-methyl-3-(Isoquinolin-4-yl)methoxy-benzamide]",59,82,3.49,,37,8100,
"Cc1cc(NC(=O)c2ccc(Cl)c(OCc3cncc4ccccc34)c2)ccc1C(C)C [Example K-12, N-(4-Isopropyl-3-methyl-phenyl)-4-chloro-3-(Isoquinolin-4-yl)methoxy-benzamide]",70,48,2.96,,27,4700,
"O=C(Nc1ccc(N2CCNCC2)c(C(F)(F)F)c1)c1ccc(F)c(OCc2cncc3ccccc23)c1 [Example R-15, 4-Fluoro-N-(4-piperazin-1-yl-3-trifluoromethyl-phenyl)-3-(isoquinolin-4-ylmethoxy)-benzamide]",41,26,,8.8,36,3100,"IC50 [5, 10]: 130 nM"
"O=C(Nc1cc(Cl)c(N2CCNCC2)c(Cl)c1)c1ccc(F)c(OCc2cccnc2)c1 [Example R-19, N-(3,5-Dichloro-4-piperazin-1-yl-phenyl)-4-fluoro-3-(pyridin-3-ylmethoxy)-benzamide]",,,,13.9,64,1700,melting point: 81 to 85 °C
CN1CCN(c2ccc(NC(=O)c3ccc(F)c(OCc4cccnc4)c3)cc2C(F)(F)F)CC1 [Example R-20],,,,,155,2600,inhibition at 0.05 µM [2]: 19%; melting point: 61 to 66 °C
"O=C(Nc1ccc(-n2cccn2)c(C(F)(F)F)c1)c1ccc(F)c(OCc2cccnc2)c1 [Example R-22, 4-Fluoro-N-(4-pyrazol-1-yl-3-trifluoromethyl-phenyl)-3-(pyridin-3-ylmethoxy)-benzamide]",21,13,,,,,"inhibition at 0.05 µM [2]: 52%; IC50 [5, 10]: > 100 nM"
"COc1ccc(Nc2cc(CSc3cccc(NC(=O)c4ccc(O)c(C(C)(C)C)c4)c3)[nH]n2)cn1 [Example W-1, 3-t-Butyl-4-hydroxy-N-{3-[5-(6-methoxy-pyridin-3-ylamino)-2 H-pyrazol-3-ylmethylsulfanyl]-phenyl}-benzamide]",67,88,,,,,"Ki [2, 7]: 0.12 nM; IC50 [5, 11]: 23 nM"
"CC(=O)Oc1ccc(C(=O)Nc2cccc(OCc3cncc4ccccc34)c2)cc1C(C)(C)C [Example X-3, 4-Acetoxy-3-t-butyl-N-[3-(isoquinolin-4-ylmethoxy)phenyl]-benzamide]",,,,,,,"Ki [2, 7]: 2.2 nM; IC50 [5, 11]: 30 to 100 nM; IC50 ([6]; MV522 lung cancer cells): 4600 nM; melting point: 83 to 86 °C"
